Reference: the NIST ThermoML archive (doi:10.1007/s10765-013-1469-0)

Assay: refractive index (Na D-line) (dimensionless); xn = mol fraction of the nth substance listed
Settings: 101 kPa, Liquid, Standard Abbe refractometry

COCCOCCOCCOCCOC [2,5,8,11,14-pentaoxapentadecane] + CCCCO
refractive index
Settings	288.15 K	293.15 K	298.15 K	303.15 K	308.15 K	313.15 K	318.15 K	323.15 K	328.15 K	333.15 K
x2 = 0	1.4345	1.43238	1.43027	1.42815	1.42603	1.42394	1.42183	1.41973	1.41765	1.41553
x2 = 0.1013	1.43292	1.43079	1.42868	1.42658	1.42448	1.42237	1.42027	1.41818	1.41611	1.41403
x2 = 0.2236	1.43083	1.42871	1.42659	1.42448	1.42237	1.42024	1.41815	1.41604	1.41396	1.41186
x2 = 0.3036	1.42941	1.4273	1.42517	1.42306	1.42094	1.41881	1.41673	1.41461	1.41251	1.4104
x2 = 0.4131	1.42694	1.42482	1.42271	1.42058	1.41846	1.41635	1.41424	1.4121	1.40998	1.40784
x2 = 0.5065	1.42465	1.42256	1.42044	1.4183	1.41616	1.41403	1.41192	1.40977	1.40763	1.40547
x2 = 0.5996	1.42188	1.41981	1.41772	1.41558	1.41346	1.41132	1.40924	1.40709	1.40491	1.40273
x2 = 0.7007	1.41822	1.41614	1.41408	1.41199	1.40985	1.40775	1.40562	1.40351	1.40133	1.39917
x2 = 0.7991	1.41381	1.41175	1.40972	1.40769	1.40559	1.40349	1.40133	1.39924	1.39712	1.39497
x2 = 0.8996	1.40823	1.40619	1.40418	1.40216	1.40005	1.39795	1.39583	1.39374	1.3916	1.38936
